Experiments:
[1] = Accelerated stability of ON 01910.Na in formulations containing PEG at 75° C. (HPLC); type: physicochemical; settings: for % ON 01910.Na Remaining: 75° C.
Experimental: (§1) The effect of dielectric constant on the stabilization of ON 01910.Na, for example, was investigated, for example, by preparing formulations containing propylene glycol and PEG 400. The accelerated stability studies were preformed at 75 and 90° C. […] The following tables summarizes the results:
(§2) The samples were evaluated by an HPLC assay utilizing a Phenomenex Luna C-18, 5 micron (4.6 mm×250 mm) reverse phase column at ambient conditions. The mobile phase consisted of 60%-0.1% Trifluoroacetic Acid in water: 40% Acetonitrile. The flow rate was set to 2.0 ml/minute and the eluant was monitored at 230 nm

[2] = Accelerated stability in formulations containing PEG or PG and pH 10 buffer at 90° C. (HPLC); type: physicochemical; settings: for % ON 01910.Na Remaining: 90° C.
Experimental: as §1, §2

[3] = Long term stability of 75 mg/mL ON 01910.Na in 100% PEG-400 (HPLC); type: physicochemical; settings: 100% PEG-400 for clinical use
Experimental: ON 01910.Na IV solution was manufactured at a concentration of 75 mg/mL in 100% PEG-400. The finished product consisted of 3 mL of drug product aseptically filled into
presterilized 5 mL vials. The manufacturing was in compliance with current Good Manufacturing Practices regulations.
Visual Inspection (a) The zero-time data point is the same as the release data generated from the manufactured clinical lot. Analytical Methods: (a) HPLC—Chromatography is performed using a Phenomenex Luna C-18 (2), 5 micron
(4.6 mm×250 mm, PN 00G-4252-E0) column at ambient conditions. The mobile phase used is 60%-0.1% trifluoroacetic acid in water; 40% acetonitrile. The flow rate is set at 2.0 ml/min Injection volume is 50 μL. Detection is accomplished by means of a UV/VIS detector at 230, 254, and 320 nm. Instrument control and data acquisition is facilitated using a Waters Millennium (V 2.15) software package. The external calibration is obtained using ON 01910.Na standard solutions prepared in 50:50 acetonitrile:water. This analytical method was validated.

[4] = Infusion bag compatibility study; type: physicochemical; settings: 75 mg/ml in PEG-400, bags containing 0.45% NaCl and 0.9% NaCl solutions
Experimental: This example summarizes the results of a compatibility study of ON 01910.Na drug product (75 mg/ml in PEG-400) in IV Infusion Bags and Sets containing 0.45% NaCl and 0.9% NaCl solutions. The study consisted of preparing solutions of 80 mg of the ON 01910.Na in 250 ml 0.9% NaCl, and 800 mg of ON01910.Na in 250 ml 0.45% NaCl, and storing them in IV infusion bags for over 24 hours to determine if there is any product loss or instability. The solutions were also passed through infusion sets at a rate of approximately 2 ml per minute for 120 minutes and monitored for product loss or instability.
The samples were analyzed by HPLC for Assay, % Recovery, and Impurities. Appearance, Osmolarity, and pH of the solutions were also monitored throughout the study. […]
Five ml of solution were removed from each bag for analysis at the following time points: T=0, 1 hr, 2 hr, 4 hr, 8 hr, and 24.5 hr. Appearance, Assay, % Impurities, % Recovery, Osmolarity, and pH were analyzed at each time points.
Results are shown in Tables 10-13. % Recovery is the percentage of drug substance as compared to the calculated amount, while % T0 is defined as the percentage of drug substance as compared to drug substance at the initial timepoint. […]

[5] = tested on: patients with advanced solid tumors; assay: Phase I dose escalation study by 2-hour intravenous infusion; type: in vivo; settings: iv 2 hour infusion, twice per week for 3 weeks, ten days off; no grade 2 or worse toxicities
Experimental: Safety and efficacy of this formulation, for example, is tested in a Phase I clinical study, at The Johns Hopkins Sidney Kimmel Cancer Center, Baltimore, Md., i.e., “Phase I Dose Escalation Study Of ON 01910.Na By 2-Hour Intravenous Infusion In Patients With Advanced Solid Tumors”. U.S. FDA IND #66,780. The objectives of this study include an identification of a maximum tolerated dose (MTD) and a recommended dose for further clinical studies. A further object of the study is to establish a safety profile, i.e., to observe any toxicities. The patients in this study have advanced solid tumors that have failed conventional treatments, or for which no approved therapy exists. An object of the study is particularly to observe efficacy (anti-cancer effects).
The patients are administered the preferred formulation described herein of the ON 01910.Na drug (properly diluted in intravenous solution) over a two hour period, twice per week, for three weeks. The patients are subsequently observed for […], to constitute a four week treatment cycle.
This study started with a single patient at the first starting dose level of 80 mg per patient. If there is no grade 2 or worse drug-related toxicity (side effects) observed in the first four week cycle, then another patient may be dosed at the next higher dose level. The first patient was dosed at 80 mg per patient on Aug. 3, 2004. […]

[6] = Solubility of the Na salt

COc1cc(OC)c(/C=C/S(=O)(=O)Cc2ccc(OC)c(NCC(=O)[O-])c2)c(OC)c1.[Na+] [ON 01910.Na, (E)-2,4,6-trimethoxystyryl-3-carboxymethylamino-4-methoxybenzylsulfone]
% ON 01910.Na Remaining ([1]; 0% PEG, 0 D): 100.00% | % ON 01910.Na Remaining ([1]; 0% PEG, 0.25 D): 86.47% | % ON 01910.Na Remaining ([1]; 0% PEG, 2 D): 11.20% | % ON 01910.Na Remaining ([1]; 0% PEG, 7 D): 0.47% | % ON 01910.Na Remaining ([1]; 0% PEG, 14 D): 0.47% | % ON 01910.Na Remaining ([1]; 0% PEG, 28 D): 0.02% | % ON 01910.Na Remaining ([1]; 25% PEG, 0 D): 100.00% | % ON 01910.Na Remaining ([1]; 25% PEG, 0.25 D): 98.12% | % ON 01910.Na Remaining ([1]; 25% PEG, 2 D): 66.89% | % ON 01910.Na Remaining ([1]; 25% PEG, 7 D): 42.13% | % ON 01910.Na Remaining ([1]; 25% PEG, 14 D): 32.03% | % ON 01910.Na Remaining ([1]; 25% PEG, 28 D): 29.80% | % ON 01910.Na Remaining ([1]; 50% PEG, 0 D): 100.00% | % ON 01910.Na Remaining ([1]; 50% PEG, 0.25 D): 100.32% | % ON 01910.Na Remaining ([1]; 50% PEG, 2 D): 94.76% | % ON 01910.Na Remaining ([1]; 50% PEG, 7 D): 86.06% | % ON 01910.Na Remaining ([1]; 50% PEG, 14 D): 75.80% | % ON 01910.Na Remaining ([1]; 50% PEG, 28 D): 68.73% | stability on addition of propylene glycol or PEG 400 to an aqueous formulation ([1]; accelerated studies at 75 and 90° C.): drastically improved | stability on adjusting the pH of the aqueous medium above 8 [2]: further improved | % ON 01910.Na Remaining ([2]; PEG:Buffer, After 72 hours): 94.22% | % ON 01910.Na Remaining ([2]; PEG:Buffer, Control): 100.00% | % ON 01910.Na Remaining ([2]; PEG:Water, After 72 hours): 22.28% | % ON 01910.Na Remaining ([2]; PEG:Water, Control): 100.00% | % ON 01910.Na Remaining ([2]; PG:Buffer, After 72 hours): 79.62% | % ON 01910.Na Remaining ([2]; PG:Buffer, Control): 100.00% | % ON 01910.Na Remaining ([2]; PG:Water, After 72 hours): 15.79% | % ON 01910.Na Remaining ([2]; PG:Water, Control): 100.00% | % ON 01910.Na Remaining ([2]; PH 10 buffer, After 72 hours): 50.18% | % ON 01910.Na Remaining ([2]; PH 10 buffer, Control): 100.00% | % ON 01910.Na Remaining ([2]; Water, After 72 hours): 5.36% | % ON 01910.Na Remaining ([2]; Water, Control): 100.00% | expected degradation over a two year period [3]: not be any Significant Degradation | long term stability in the current formulation [3]: Extremely Stable | stability in IV infusion bags [4]: stable over 24 hours | dose that can be safely administered [5]: ≥ 2080 mg | solubility [6]: very soluble

Reference: patent US8476320B2, “Formulations for parenteral administration of amino-substituted (E)-2, 6-dialkoxystyryl 4-substituted benzylsulfones” (Onconova Therapeutics, Inc, priority 2007, dated 2013)
